Measured values from ChEMBL document CHEMBL1125558 (J Med Chem, 1992).

What was measured:
Format in all cases: functional
[1] = tested on: Rattus norvegicus; experiment: Percent response at dose 10 mg/kg evaluated by temporal tests in trained rats(post injection interval 15 min)
[2] = tested on: Rattus norvegicus; experiment: Mean responses per minute at dose 10 mg/kg evaluated by dose-response tests in trained rats(post injection interval 15 min)
[3] = tested on: Rattus norvegicus; experiment: Number of animals(n) completing 20 responses on either lever out of the number of animals tested (N) at dose 10 mg/kg evaluated by dose-response tests in trained rats(post injection interval 15 min); n/N=7/7
[4] = tested on: Rattus norvegicus; experiment: Percent response at dose 10 mg/kg evaluated by temporal tests in trained rats(post injection interval 120 min)
[5] = tested on: Rattus norvegicus; experiment: Percent response at dose 2.5 mg/kg evaluated by dose-response tests in trained rats(post injection interval 15 min)
[6] = tested on: Rattus norvegicus; experiment: Percent response at dose 10 mg/kg evaluated by temporal tests in trained rats(post injection interval 30 min)
[7] = tested on: Rattus norvegicus; experiment: Number of animals(n) completing 20 responses on either lever out of the number of animals tested (N) at dose 10 mg/kg evaluated by temporal tests in trained rats(post injection interval 30 min); n/N=7/7
[8] = tested on: Rattus norvegicus; experiment: Number of animals(n) completing 20 responses on either lever out of the number of animals tested (N) at dose 5 mg/kg evaluated by dose-response tests in trained rats; n/N=7/7
[9] = tested on: Rattus norvegicus; experiment: Mean responses per minute at dose 10 mg/kg evaluated by temporal tests in trained rats(post injection interval 120 min)
[10] = tested on: Rattus norvegicus; experiment: Mean responses per minute at dose 0.62 mg/kg evaluated by dose-response tests in trained rats(post injection interval 15 min)
[11] = tested on: Rattus norvegicus; experiment: Mean responses per minute at dose 10 mg/kg evaluated by temporal tests in trained rats(post injection interval 30 min)
[12] = tested on: Rattus norvegicus; experiment: Number of animals(n) completing 20 responses on either lever out of the number of animals tested (N) at dose 10 mg/kg evaluated by temporal tests in trained rats(post injection interval 5 min); n/N=7/7
[13] = tested on: Rattus norvegicus; experiment: Percent response at dose 10 mg/kg evaluated by temporal tests in trained rats(post injection interval 5 min)
[14] = tested on: Rattus norvegicus; experiment: Mean responses per minute at dose 5 mg/kg evaluated by dose-response tests in trained rats(post injection interval 15 min)
[15] = tested on: Rattus norvegicus; experiment: Number of animals(n) completing 20 responses on either lever out of the number of animals tested (N) at dose 10 mg/kg evaluated by temporal tests in trained rats(post injection interval 120 min); n/N=7/7
[16] = tested on: Rattus norvegicus; experiment: Mean responses per minute at dose 10 mg/kg evaluated by temporal tests in trained rats(post injection interval 5 min)
[17] = tested on: Rattus norvegicus; experiment: Percent response at dose 10 mg/kg evaluated by dose-response tests in trained rats(post injection interval 15 min)
[18] = tested on: Rattus norvegicus; experiment: Number of animals(n) completing 20 responses on either lever out of the number of animals tested (N) at dose 10 mg/kg evaluated by temporal tests in trained rats(post injection interval 15 min); n/N=7/7
[19] = tested on: Rattus norvegicus; experiment: Number of animals(n) completing 20 responses on either lever out of the number of animals tested (N) at dose 10 mg/kg evaluated by temporal tests in trained rats(post injection interval 60 min); n/N=7/7
[20] = tested on: Rattus norvegicus; experiment: Mean responses per minute at dose 2.5 mg/kg evaluated by dose-response tests in trained rats(post injection interval 15 min)
[21] = tested on: Rattus norvegicus; experiment: Percent response at dose 0.62 mg/kg evaluated by dose-response tests in trained rats(post injection interval 15 min)
[22] = tested on: Rattus norvegicus; experiment: Percent response at dose 1.25 mg/kg evaluated by dose-response tests in trained rats(post injection interval 15 min)
[23] = tested on: Rattus norvegicus; experiment: Number of animals(n) completing 20 responses on either lever out of the number of animals tested (N) at dose 0.62 mg/kg evaluated by dose-response tests in trained rats(post injection interval 15 min); n/N=7/7
[24] = tested on: Rattus norvegicus; experiment: Mean responses per minute at dose 10 mg/kg evaluated by temporal tests in trained rats(post injection interval 60 min)
[25] = tested on: Rattus norvegicus; experiment: Percent response at dose 5 mg/kg evaluated by dose-response tests in trained rats(post injection interval 15 min)
[26] = tested on: Rattus norvegicus; experiment: Percent response at dose 10 mg/kg evaluated by temporal tests in trained rats(post injection interval 60 min)
[27] = tested on: Rattus norvegicus; experiment: Number of animals(n) completing 20 responses on either lever out of the number of animals tested (N) at dose 1.25 mg/kg evaluated by dose-response tests in trained rats(post injection interval 15 min); n/N=7/7
[28] = tested on: Rattus norvegicus; experiment: Number of animals(n) completing 20 responses on either lever out of the number of animals tested (N) at dose 2.5 mg/kg evaluated by dose-response tests in trained rats(post injection interval 15 min); n/N=7/7
[29] = tested on: Rattus norvegicus; experiment: Mean responses per minute at dose 10 mg/kg evaluated by temporal tests in trained rats(post injection interval 15 min)
[30] = tested on: Rattus norvegicus; experiment: Mean responses per minute at dose 1.25 mg/kg evaluated by dose-response tests in trained rats(post injection interval 15 min)

`COC(=O)[C@H]1[C@@H](OC(=O)c2ccccc2)C[C@@H]2CC[C@H]1N2C` [COCAINE] was tested. Which Drug response [1] did it give?
The Drug response was 99%.

What about the Rate response [2] of the same compound?
The Rate response was 76 min⁻¹.

And the “No. resp animals / Total” value [3]?
The value was 7 / 7.

What about the Drug response [4] of the same compound?
Its Drug response is 31%.

What about the Drug response [5] of the same compound?
Its Drug response is 61%.

And the Drug response [6]?
The Drug response was 100%.

What about the “No. resp animals / Total” value [7] of the same compound?
The value was 7 / 7.

What about the “No. resp animals / Total” value [8] of the same compound?
The value was 7 / 7.

And the Rate response [9]?
Its Rate response is 28 min⁻¹.

And the Rate response [10]?
The Rate response was 27 min⁻¹.

What about the Rate response [11] of the same compound?
The Rate response was 61 min⁻¹.

What about the “No. resp animals / Total” value [12] of the same compound?
Its value is 7 / 7.

What about the Drug response [13] of the same compound?
The Drug response was 85%.

What about the Rate response [14] of the same compound?
The Rate response was 89 min⁻¹.

What about the “No. resp animals / Total” value [15] of the same compound?
The value was 7 / 7.

What about the Rate response [16] of the same compound?
The Rate response was 28 min⁻¹.

And the Drug response [17]?
Its Drug response is 99%.

And the “No. resp animals / Total” value [18]?
Its value is 7 / 7.

And the “No. resp animals / Total” value [19]?
The value was 7 / 7.

And the Rate response [20]?
The Rate response was 32 min⁻¹.

And the Drug response [21]?
Its Drug response is 6%.

And the Drug response [22]?
Its Drug response is 44%.

And the “No. resp animals / Total” value [23]?
Its value is 7 / 7.

And the Rate response [24]?
Its Rate response is 23 min⁻¹.

And the Drug response [25]?
Its Drug response is 98%.

What about the Drug response [26] of the same compound?
The Drug response was 81%.

What about the n/N [27] of the same compound?
The n/N was 7 / 7.

What about the “No. resp animals / Total” value [28] of the same compound?
Its value is 7 / 7.

And the Rate response [29]?
Its Rate response is 76 min⁻¹.

What about the Rate response [30] of the same compound?
Its Rate response is 21 min⁻¹.
